Test results: patent publication US12447135B2 (University of South Florida, priority 2021, dated 2025)
“Also recorded” adds a separate entry of the source. Structures can show the parent of a compound that is named as a salt.

Columns and labels:
Format in all cases: cell-based, human
FFAR2 signaling [1] = test: Western blot of phospho-ERK1/2 in SK-N-SH cells (FFAR2 signal activation); conditions: 10 μM, 30 min
Procedure: To determine the FFAR2 signal activating property of selected compounds, SK-N-SH cells were treated with 10 μM of shortlisted compounds for 30 min at 37° C. and harvested for total protein extraction. […] After sonication, cell extracts were centrifuged at 8,000×g for 10 min at 4° C., and the supernatant was separated in a fresh tube. The total protein concentration of the supernatant was measured using a BCA protein assay kit. An equal amount of total protein (45 μg) from each sample was dissolved in loading buffer and loaded in 4% stacking gel and 10% separating SDS-PAGE gel and resolved at 100 V. Proteins were transferred on a 0.22 μm PVDF membrane and blots were developed with anti-ERK1/2, anti-phosphoERK1/2, ubiquitin (P4D1), and Aβ (6E10) primary antibodies followed by their secondary antibodies and bands were visualized using the Pierce™ Fast Western Blot Kit, ECL Substrate acquired using Syngene Pxi. Band densities were also quantified using NIH ImageJ software. β-actin was used as an internal control.

SK-N-SH cells = test: Aβ-induced neurotoxicity, MTT viability assay; conditions: 10 μM CATPB, 25 μM Aβ
Procedure: To determine the impact of FFAR2 inhibition on Aβ-induced neuronal cell toxicity, the MTT viability assay was performed (Ronicke et al., 2008). SK-N-SH cells (1×10^3 cells per well) were plated in a 96-well plate containing DMEM medium supplemented with 10% FBS and 1% antibiotics and grown at 37° C. for 24 h. Then, media was removed, and cells were washed with PBS before being replenished with DMEM media containing 1% FBS and 10 μM FFAR2 inhibitor (CATPB, Tocris) and incubated at 37° C. for 2 h. Then, cells were treated with Aβ 25-32 peptide (25 μM, Sigma) and incubated for 4 h. Afterward, the media was replaced with 100 μl of fresh media, and 10 μl of MTT reagent (5 mg/ml in phosphate buffer [pH 7.2]) was added and mixed in each well before an additional 4 h incubation. Then, DMSO (50 μl) was added in each well and mixed thoroughly to dissolve formazan crystals. The absorbance was measured at 570 nm.

FFAR2 signaling [2] = test: cAMP-Glo assay, forskolin-induced cAMP in SK-N-SH cells; conditions: 10 μM compound, 10 μM forskolin
Procedure: FFAR2 is a Gi/o signaling receptor, which reduces cytosolic cAMP (Falomir-Lockhart et al., 2019). To determine the FFAR2 signaling activating potential of selected compounds, the cAMP-Glo™ Assay was used to measure intracellular cAMP. SK-N-SH cells (1×10^3 cells per well) were plated in a white 96-well plate for 24 h and then treated with 10 μM compounds and 10 μM forskolin (a positive control) dissolved in induction buffer. The cAMP levels were detected using a Luminescence Microplate Reader.

Molecule | descending order of phospho-ERK1/2 levels (FFAR2 signaling [1]) | Aβ-induced cell death / cell viability under FFAR2 inhibition (SK-N-SH cells) | cAMP upon Forskolin-stimulation, ascending order (FFAR2 signaling [2])
CC1(C)C2CCC1(C)C(O)C2 (centres unmarked) [Breneol] | Fenchol>Octopamine>Carvamenthenol>Camphene>Pentanone>Synephrine>Leucinamide>Carene>α-Terpineol>Breneol>L-Fenchone>D-Fenchone>Norpseudoephedrine HCl |  | 
O=C(O)C[C@H](Cc1ccc(C(F)(F)F)cc1)NC(=O)Cc1cccc(Cl)c1 [CATPB, reference compound] |  | further reduced cell viability; also recorded: further exacerbated Aβ-induced cell death | 
C=C1C2CCC(C2)C1(C)C (centres unmarked) [Camphene] | Fenchol>Octopamine>Carvamenthenol>Camphene>Pentanone>Synephrine>Leucinamide>Carene>α-Terpineol>Breneol>L-Fenchone>D-Fenchone>Norpseudoephedrine HCl |  | Fenchol<Carvamenthenol<α-Terpineol<Carene<Pentanone<Octopamine<Camphene
CC1(C)C(=O)[C@@]2(C)CCC1C2 [D-Fenchone] | Fenchol>Octopamine>Carvamenthenol>Camphene>Pentanone>Synephrine>Leucinamide>Carene>α-Terpineol>Breneol>L-Fenchone>D-Fenchone>Norpseudoephedrine HCl |  | 
CC1(C)C(=O)[C@@]2(C)CC[C@H]1C2 [L-Fenchone] | Fenchol>Octopamine>Carvamenthenol>Camphene>Pentanone>Synephrine>Leucinamide>Carene>α-Terpineol>Breneol>L-Fenchone>D-Fenchone>Norpseudoephedrine HCl |  | 
CC(C)C[C@H](N)C(N)=O [Leucinamide] | Fenchol>Octopamine>Carvamenthenol>Camphene>Pentanone>Synephrine>Leucinamide>Carene>α-Terpineol>Breneol>L-Fenchone>D-Fenchone>Norpseudoephedrine HCl |  | 
C[C@H](N)[C@@H](O)c1ccccc1 [Norpseudoephedrine HCl] | Fenchol>Octopamine>Carvamenthenol>Camphene>Pentanone>Synephrine>Leucinamide>Carene>α-Terpineol>Breneol>L-Fenchone>D-Fenchone>Norpseudoephedrine HCl |  | 
NCC(O)c1ccc(O)cc1 (centres unmarked) [Octopamine] | Fenchol>Octopamine>Carvamenthenol>Camphene>Pentanone>Synephrine>Leucinamide>Carene>α-Terpineol>Breneol>L-Fenchone>D-Fenchone>Norpseudoephedrine HCl |  | Fenchol<Carvamenthenol<α-Terpineol<Carene<Pentanone<Octopamine<Camphene
CNCC(O)c1ccc(O)cc1 (centres unmarked) [Synephrine] | Fenchol>Octopamine>Carvamenthenol>Camphene>Pentanone>Synephrine>Leucinamide>Carene>α-Terpineol>Breneol>L-Fenchone>D-Fenchone>Norpseudoephedrine HCl |  | 
CC1=CCC(C(C)(C)O)CC1 (stereo not drawn) [α-Terpineol] | Fenchol>Octopamine>Carvamenthenol>Camphene>Pentanone>Synephrine>Leucinamide>Carene>α-Terpineol>Breneol>L-Fenchone>D-Fenchone>Norpseudoephedrine HCl |  | Fenchol<Carvamenthenol<α-Terpineol<Carene<Pentanone<Octopamine<Camphene
Carene | Fenchol>Octopamine>Carvamenthenol>Camphene>Pentanone>Synephrine>Leucinamide>Carene>α-Terpineol>Breneol>L-Fenchone>D-Fenchone>Norpseudoephedrine HCl |  | Fenchol<Carvamenthenol<α-Terpineol<Carene<Pentanone<Octopamine<Camphene
Carvamenthenol | Fenchol>Octopamine>Carvamenthenol>Camphene>Pentanone>Synephrine>Leucinamide>Carene>α-Terpineol>Breneol>L-Fenchone>D-Fenchone>Norpseudoephedrine HCl |  | Fenchol<Carvamenthenol<α-Terpineol<Carene<Pentanone<Octopamine<Camphene
